# Results as given in patent US20200113852A1, “METHODS OF PATIENT SELECTION AND TREATING TRXR- OR PRDX-OVEREXPRESSED CANCERS” (TRIACT THERAPEUTICS, INC., priority 2017, published 2020).
# Assays:
# [1] = tested on: TrxR in MDA-MB-231 cells; assay: Endogenous TrxR activity (DTNB reduction assay); assay type: cell-based, human; conditions: GSH-depleted MDA-MB-231; iniparib 100 μM, Auranofin 1 μM, up to 4 h
# From the text: Initial velocities were derived from linear regression analyses and then plotted in double reciprocal plots to obtain the half time of TrxR inhibition using an one phase exponential decay analysis (Prism, GraphPad software).
# [2] = tested on: Trx1/2 in MDA-MB-231 cells; assay: Trx redox western blot analysis; assay type: cell-based, human; conditions: GSH-depleted MDA-MB-231, 100 μM, 6h, increases further at 18h
# Experimental: Quantification is obtained directly from the relative intensities of the different bands. Two forms of the redox Western blot have been developed, separating on the basis of differing charge (thiols are modified with a charged alkylating reagent) or mass (thiols are modified with a high-mass alkylating reagent). Redox analysis of the mitochondrial compartment is performed using a redox Western blot analysis of thioredoxin-2 (Trx2). Trx2 is exclusively found in mitochondria, so an analysis of a cell or tissue extract provides specific information on redox in the mitochondria without fractionation. Analysis is performed following derivatization with AMS. Trx2 contains two cysteine residues, and the addition of two molecules of AMS increases the mass by approximately 1000 Da. Oxidized and AMS derivatized forms are separated by non-reducing SDS polyacrylamide gel electrophoresis and detected by immunoblotting.
# [3] = tested on: MDA-MB-231 cells; assay: ROS production (CellROXOrange); assay type: cell-based, human; conditions: GSH-depleted MDA-MB-231, 100 μM, 4 h
# [4] = biological target: rat liver TrxR (Rattus norvegicus, UniProt O89049); assay: Electron paramagnetic resonance, DEPMPO spin trapping; conditions: 100 μM Iniparib, NADPH, aerobic
# Experimental: Computer simulations of the spectra were performed using the program written by Rockenbauer and Korecz (25). […] Then the reaction mixture was transferred by aspiration into a gas permeable PTFE tubing (Extruded Sub-Lite-Wall®, inside diameter: 0.635 mm, wall thickness: 0.051 mm, Zeus Industrial Products Ltd., Ireland). The tubing was folded twice in a W-shape and inserted into a 4-mm EPR quartz tube for EPR analysis. […] To confirm the involvement of superoxide in the appearance of the EPR signal, 100 units of superoxide dismutase (SOD) were added to the incubation prior to TrxR addition. For anaerobic experiments, the reaction mixture was immediately transferred into the gas permeable tubing and nitrogen gas was flushed through a septum cap in the sealed EPR quartz tube during the whole experiment.
# [5] = Phase II clinical trial GBM, toxicity and tolerability
# [6] = biological target: T1, TrxR1 and other protein targets in HCT116 cells (Homo sapiens, UniProt Q16881); conditions: 90-min preincubation of GSH-depleted HCT116 (auranofin 10 μM or Iniparib 100 μM)
# T1 sequence (Q16881 1-499 isoform Q16881-5): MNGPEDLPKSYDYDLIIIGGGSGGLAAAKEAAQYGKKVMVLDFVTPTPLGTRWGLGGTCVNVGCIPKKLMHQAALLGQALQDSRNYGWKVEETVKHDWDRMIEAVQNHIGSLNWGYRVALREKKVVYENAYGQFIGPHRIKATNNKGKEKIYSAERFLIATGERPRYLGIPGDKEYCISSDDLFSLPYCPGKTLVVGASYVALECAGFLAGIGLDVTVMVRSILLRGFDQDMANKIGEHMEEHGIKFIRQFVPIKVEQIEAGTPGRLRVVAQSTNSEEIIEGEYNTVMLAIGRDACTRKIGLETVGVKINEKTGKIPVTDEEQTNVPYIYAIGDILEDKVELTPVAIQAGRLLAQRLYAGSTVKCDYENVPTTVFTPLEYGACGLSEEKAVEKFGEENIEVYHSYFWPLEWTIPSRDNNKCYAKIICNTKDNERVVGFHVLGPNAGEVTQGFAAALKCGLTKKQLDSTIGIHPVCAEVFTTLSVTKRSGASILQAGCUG
# Experimental: TrxR1 immunoprecipitates (FIG. 17A) and cells extracts (FIG. 17B) were analysed by SDS-PAGE under reducing conditions followed by streptavidin-HRP blot and TrxR1 blot.
# Clarified octyl-glucoside lysates (12 mg proteins) were combined with anti-TrxR1 or anti-TrxR2 monoclonal antibody coupled to protein G plus agarose (Santa Cruz Biotechnology) and mixed overnight at 4° C. Beads were recovered by centrifugation for 2 min at 1,000×g and extensively washed in octyl-glucoside lysis buffer. Precipitated complexes were eluted by incubating the beads for 20 min at 60° C. in SDS sample buffer. The amount of immunoprecipitated TrxR1 and TrxR2 was systematically checked by blots anti-TrxR1 and anti-TrxR2, respectively.
# [7] = biological target: T2, TrxR1 (Homo sapiens, UniProt Q16881); assay: In vitro Iniparib-biotin TrxR adduct formation on immunoprecipitated TrxR with or without NADPH; assay type: binding
# T2 sequence (Q16881 1-499 isoform Q16881-5): T1 sequence (Q16881 1-499 isoform Q16881-5)
# Sequence of rat liver TrxR (O89049 whole entry): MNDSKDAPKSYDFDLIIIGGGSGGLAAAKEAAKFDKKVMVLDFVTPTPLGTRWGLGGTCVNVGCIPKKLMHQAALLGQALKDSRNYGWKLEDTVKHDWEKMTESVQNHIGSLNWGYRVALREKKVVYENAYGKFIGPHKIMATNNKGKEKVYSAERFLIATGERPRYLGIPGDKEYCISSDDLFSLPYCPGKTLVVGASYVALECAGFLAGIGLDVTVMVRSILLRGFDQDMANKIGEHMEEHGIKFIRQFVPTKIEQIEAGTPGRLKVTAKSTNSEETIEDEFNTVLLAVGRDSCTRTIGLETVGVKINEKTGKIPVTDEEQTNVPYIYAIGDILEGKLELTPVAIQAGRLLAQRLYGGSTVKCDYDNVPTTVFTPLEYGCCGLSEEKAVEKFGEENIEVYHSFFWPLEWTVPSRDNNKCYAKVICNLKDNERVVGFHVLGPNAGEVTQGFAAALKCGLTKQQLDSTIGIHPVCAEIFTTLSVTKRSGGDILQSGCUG
smiles,measurement,setting,value
"NC(=O)c1ccc(I)c([N+](=O)[O-])c1 [Iniparib, 4-iodo-3-nitrobenzamide]",TrxR reductase activity,[1],inhibition of the TrxR reductase activity
same,Trx oxidation status,[2],accumulation of oxidized Trx
same,ROS,[3],accumulation of ROS
same,DEPMPO/HOO• adduct signal,[4],five-fold
same,DEPMPO/HO• adduct signal,[4],doubled
same,Acute kidney injury,[5]; Grade 3,1 (1) N (%)
same,Anemia,[5]; Grade 3,2 (2) N (%)
same,Atrial fibrillation,[5]; Grade 3,1 (1) N (%)
same,Bronchial infection,[5]; Grade 3,1 (1) N (%)
same,Cognitive disturbance,[5]; Grade 3,1 (1) N (%)
same,Confusion,[5]; Grade 3,1 (1) N (%)
same,Dehydration,[5]; Grade 3,1 (1) N (%)
same,Dizziness,[5]; Grade 3,1 (1) N (%)
same,Dysphasia,[5]; Grade 3,1 (1) N (%)
same,Fatigue,[5]; Grade 3,4 (5) N (%)
same,Generalized muscle weakness,[5]; Grade 3,2 (2) N (%)
same,Headache,[5]; Grade 3,1 (1) N (%)
same,Hyperkalemia,[5]; Grade 3,1 (1) N (%)
same,Hypokalemia,[5]; Grade 3,1 (1) N (%)
same,Hypotension,[5]; Grade 3,1 (1) N (%)
same,Hypoxia,[5]; Grade 3,1 (1) N (%)
same,Lymphocyte count decreased,[5]; Grade 3,4 (5) N (%)
same,Nausea,[5]; Grade 3,2 (2) N (%)
same,Neutrophil Count Decreased,[5]; Grade 3,3 (4) N (%)
same,Platelet Count Decreased,[5]; Grade 3,4 (5) N (%)
same,Rash maculo-papular,[5]; Grade 3,3 (4) N (%)
same,Skin and subcutaneous tissue disorders,[5]; Grade 3,1 (1) N (%)
same,Vomiting,[5]; Grade 3,1 (1) N (%)
same,White Blood Cell Decreased,[5]; Grade 3,5 (6) N (%)
same,Alanine aminotransferase increased,[5]; Grade 4,1 (1) N (%)
same,Aspartate aminotransferase increased,[5]; Grade 4,1 (1) N (%)
same,Flushing,[5]; Grade 4,1 (1) N (%)
same,Hypertension,[5]; Grade 4,1 (1) N (%)
same,Neutrophil Count Decreased,[5]; Grade 4,5 (6) N (%)
same,Platelet Count Decreased,[5]; Grade 4,11 (13) N (%)
same,White Blood Cell Decreased,[5]; Grade 4,3 (4) N (%)
same,Acute kidney injury,[5]; Total,1 (1) N (%)
same,Alanine aminotransferase increased,[5]; Total,1 (1) N (%)
same,Anemia,[5]; Total,2 (2) N (%)
same,Aspartate aminotransferase increased,[5]; Total,1 (1) N (%)
same,Atrial fibrillation,[5]; Total,1 (1) N (%)
same,Bronchial infection,[5]; Total,1 (1) N (%)
same,Cognitive disturbance,[5]; Total,1 (1) N (%)
same,Confusion,[5]; Total,1 (1) N (%)
same,Dehydration,[5]; Total,1 (1) N (%)
same,Dizziness,[5]; Total,1 (1) N (%)
same,Dysphasia,[5]; Total,1 (1) N (%)
same,Fatigue,[5]; Total,4 (5) N (%)
same,Flushing,[5]; Total,1 (1) N (%)
same,Generalized muscle weakness,[5]; Total,2 (2) N (%)
same,Headache,[5]; Total,1 (1) N (%)
same,Hyperkalemia,[5]; Total,1 (1) N (%)
same,Hypertension,[5]; Total,1 (1) N (%)
same,Hypokalemia,[5]; Total,1 (1) N (%)
same,Hypotension,[5]; Total,1 (1) N (%)
same,Hypoxia,[5]; Total,1 (1) N (%)
same,Lymphocyte count decreased,[5]; Total,4 (5) N (%)
same,Nausea,[5]; Total,2 (2) N (%)
same,Neutrophil Count Decreased,[5]; Total,8 (10) N (%)
same,Platelet Count Decreased,[5]; Total,15 (18) N (%)
same,Rash maculo-papular,[5]; Total,3 (4) N (%)
same,Skin and subcutaneous tissue disorders,[5]; Total,1 (1) N (%)
same,Vomiting,[5]; Total,1 (1) N (%)
same,White Blood Cell Decreased,[5]; Total,8 (10) N (%)
same,well tolerated dose,[5]; with adjuvant TMZ,17.2 mg/kg weekly
same,well tolerated dose,[5]; with radiation and TMZ,16 mg/kg weekly
same,TrxR1 labeling with Iniparib-biotin after preincubation,[6],only a partial inhibition
"O=C(CCCC[C@@H]1SC[C@@H]2NC(=O)N[C@@H]21)NCCNC(=O)c1ccc(I)c([N+](=O)[O-])c1 [Iniparib-biotin, 4-iodo-3-nitro-N-(2-(5-((3 aS,4S,6aR)-2-oxohexahydro-1H-thieno[3,4-d]imidazol-4-yl)pentanamido)ethyl)benzamide]",adduct formation with TrxR1,[7]; NADPH provided,able to form adducts with TrxR1 to a large extent
same,covalent labeling of TrxR1,[7]; absence of NADPH,almost no covalent labeling
